Reference: US8076487B2, “Pyridone derivative and herbicide” (Kumiai Chemical Industry Co., Ltd., priority 2006, dated 2011)

Columns and labels:
Assay type in all cases: in vivo
[1] = system: Japanese bulrush (Scirpus juncoides Roxb.); test: Test Example 1: herbicidal effect by soil application to paddy field; details: paddy field soil application; active ingredient 1,000 g per 1 hectare; wettable powder added dropwise to water surface the day after sowing; examined on the 21st day after application
In short: (§1)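 Plants were sown in flooded (3 cm) paddy soil and evaluated for herbicidal effect 21 days after soil application in a greenhouse.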

[2] = system: early watergrass (Echinochloa oryzicola Vasing); test: as above; details: paddy field soil application; active ingredient 1,000 g per 1 hectare; wettable powder added dropwise to water surface the day after sowing; examined on the 21st day after application
In short: as §1

[3] = system: heartshape false pickerelweed (Monochoria vaginalis (Burm.f.) C.Presl); test: as above; details: paddy field soil application; active ingredient 1,000 g per 1 hectare; wettable powder added dropwise to water surface the day after sowing; examined on the 21st day after application
In short: as §1

[4] = system: barnyardgrass (Echinochloa crus-galli (L.) P. Beauv. var. crus-galli); test: Test Example 2: herbicidal effect by soil application to upland field; details: soil surface spray, upland field soil, 1,000 g active ingredient per hectare, 21st day after application
In short: (§2)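 A standard visual rating of herbicidal effect, made 21 days after treatment, gives the value. Treatment consisted of a uniform spray of water-diluted wettable powder on the soil covering newly sown seeds, equivalent to 1,000 g active ingredient and 1,000 liters per hectare.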

[5] = system: green foxtail (Setaria viridis (L.) P. Beauv.); test: as above; details: soil surface spray, upland field soil, 1,000 g active ingredient per hectare, 21st day after application
In short: as §2

[6] = system: slender amaranth (Amaranthus viridis L.); test: as above; details: soil surface spray, upland field soil, 1,000 g active ingredient per hectare, 21st day after application
In short: as §2

[7] = system: velvetleaf (Abutilon theophrasti medicus); test: as above; details: soil surface spray, upland field soil, 1,000 g active ingredient per hectare, 21st day after application
In short: as §2

[8] = system: barnyardgrass (Echinochloa crus-galli (L.) P. Beauv. var. crus-galli); test: Test Example 3: herbicidal effect by application to upland field (foliage treatment); details: foliage treatment, 1,000 g active ingredient per 1 hectare, 14th day after application, greenhouse
In short: (§3)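 Plants were sown in field soil and raised in a greenhouse for two weeks before foliar spraying. A water-diluted wettable powder was applied at 1,000 g active ingredient per hectare in 1,000 liters per hectare. Herbicidal effect was scored on a standard scale 14 days later.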

[9] = system: green foxtail (Setaria viridis (L.) P. Beauv.); test: as above; details: foliage treatment, 1,000 g active ingredient per 1 hectare, 14th day after application, greenhouse
In short: as §3

[10] = system: slender amaranth (Amaranthus viridis L.); test: as above; details: foliage treatment, 1,000 g active ingredient per 1 hectare, 14th day after application, greenhouse
In short: as §3

[11] = system: velvetleaf (Abutilon theophrasti medicus); test: as above; details: foliage treatment, 1,000 g active ingredient per 1 hectare, 14th day after application, greenhouse
In short: as §3

`O=C(C1=C(O)C2CCC(C2)C1=O)c1ccc(C(F)(F)F)n(C2CCCC2)c1=O` (centres unmarked) [III-11] was tested, and the “herbicidal effect, Scirpus juncoides Roxb.” value [1] was 5 (90% or more of herbicidal effect and crop phytotoxicity), the “herbicidal effect, Echinochloa oryzicola Vasing” value [2] was 5 (90% or more of herbicidal effect and crop phytotoxicity) and the “herbicidal effect, Monochoria vaginalis (Burm. f.) C. Presl” value (from here on “herbicidal effect, Monochoria vaginalis”) [3] was 5 (90% or more of herbicidal effect and crop phytotoxicity). For the same compound, the “herbicidal effect (index), Barnyardgrass” value [4] was 4 (70 to less than 90% of herbicidal effect and crop phytotoxicity), the “herbicidal effect (index), Green Foxtail” value [5] was 4 (70 to less than 90% of herbicidal effect and crop phytotoxicity) and the “herbicidal effect (index), Slender Amaranth” value [6] was 5 (90% or more of herbicidal effect and crop phytotoxicity). For the same compound, the “herbicidal effect (index), Velvetleaf” value [7] was 5 (90% or more of herbicidal effect and crop phytotoxicity), the “herbicidal effect, Barnyardgrass” value [8] was 5 (90% or more of herbicidal effect and crop phytotoxicity) and the “herbicidal effect, Green Foxtail” value [9] was 5 (90% or more of herbicidal effect and crop phytotoxicity). The “herbicidal effect, Slender Amaranth” value [10] was 5 (90% or more of herbicidal effect and crop phytotoxicity) and the “herbicidal effect, Velvetleaf” value [11] was 5 (90% or more of herbicidal effect and crop phytotoxicity).
In the case of `Cn1c(C(F)(F)F)ccc(C(=O)C2=C(Sc3ccccc3)C3CCC(C3)C2=O)c1=O` (centres unmarked) [III-14], the “herbicidal effect, Scirpus juncoides Roxb.” value [1] is reported as 5 (90% or more of herbicidal effect and crop phytotoxicity), the “herbicidal effect, Echinochloa oryzicola Vasing” value [2] is reported as 5 (90% or more of herbicidal effect and crop phytotoxicity) and the “herbicidal effect, Monochoria vaginalis” value [3] is reported as 5 (90% or more of herbicidal effect and crop phytotoxicity). For the same compound, the “herbicidal effect (index), Barnyardgrass” value [4] was 4 (70 to less than 90% of herbicidal effect and crop phytotoxicity), the “herbicidal effect (index), Green Foxtail” value [5] was 4 (70 to less than 90% of herbicidal effect and crop phytotoxicity) and the “herbicidal effect (index), Slender Amaranth” value [6] was 5 (90% or more of herbicidal effect and crop phytotoxicity). For the same compound, the “herbicidal effect (index), Velvetleaf” value [7] was 5 (90% or more of herbicidal effect and crop phytotoxicity), the “herbicidal effect, Barnyardgrass” value [8] was 5 (90% or more of herbicidal effect and crop phytotoxicity) and the “herbicidal effect, Green Foxtail” value [9] was 5 (90% or more of herbicidal effect and crop phytotoxicity). The “herbicidal effect, Slender Amaranth” value [10] was 5 (90% or more of herbicidal effect and crop phytotoxicity) and the “herbicidal effect, Velvetleaf” value [11] was 5 (90% or more of herbicidal effect and crop phytotoxicity).
With `CCn1c(C(F)(F)F)ccc(C(=O)C2=C(Sc3ccccc3)C3CCC(C3)C2=O)c1=O` (centres unmarked) [III-15] the “herbicidal effect, Scirpus juncoides Roxb.” value [1] was 5 (90% or more of herbicidal effect and crop phytotoxicity), the “herbicidal effect, Echinochloa oryzicola Vasing” value [2] was 5 (90% or more of herbicidal effect and crop phytotoxicity) and the “herbicidal effect, Monochoria vaginalis” value [3] was 5 (90% or more of herbicidal effect and crop phytotoxicity). The “herbicidal effect (index), Barnyardgrass” value [4] was 5 (90% or more of herbicidal effect and crop phytotoxicity), the “herbicidal effect (index), Green Foxtail” value [5] was 5 (90% or more of herbicidal effect and crop phytotoxicity) and the “herbicidal effect (index), Slender Amaranth” value [6] was 5 (90% or more of herbicidal effect and crop phytotoxicity). The “herbicidal effect (index), Velvetleaf” value [7] was 5 (90% or more of herbicidal effect and crop phytotoxicity), the “herbicidal effect, Barnyardgrass” value [8] was 5 (90% or more of herbicidal effect and crop phytotoxicity) and the “herbicidal effect, Green Foxtail” value [9] was 5 (90% or more of herbicidal effect and crop phytotoxicity). For the same compound, the “herbicidal effect, Slender Amaranth” value [10] was 5 (90% or more of herbicidal effect and crop phytotoxicity) and the “herbicidal effect, Velvetleaf” value [11] was 5 (90% or more of herbicidal effect and crop phytotoxicity).
In the case of `CCCn1c(C(F)(F)F)c(C)cc(C(=O)C2=C(O)C3CCC(C3)C2=O)c1=O` (centres unmarked) [III-18], the “herbicidal effect, Scirpus juncoides Roxb.” value [1] is reported as 5 (90% or more of herbicidal effect and crop phytotoxicity), the “herbicidal effect, Echinochloa oryzicola Vasing” value [2] is reported as 5 (90% or more of herbicidal effect and crop phytotoxicity) and the “herbicidal effect, Monochoria vaginalis” value [3] is reported as 5 (90% or more of herbicidal effect and crop phytotoxicity). The “herbicidal effect (index), Barnyardgrass” value [4] was 5 (90% or more of herbicidal effect and crop phytotoxicity), the “herbicidal effect (index), Green Foxtail” value [5] was 3 (50 to less than 70% of herbicidal effect and crop phytotoxicity) and the “herbicidal effect (index), Slender Amaranth” value [6] was 5 (90% or more of herbicidal effect and crop phytotoxicity). For the same compound, the “herbicidal effect (index), Velvetleaf” value [7] was 5 (90% or more of herbicidal effect and crop phytotoxicity), the “herbicidal effect, Barnyardgrass” value [8] was 5 (90% or more of herbicidal effect and crop phytotoxicity) and the “herbicidal effect, Green Foxtail” value [9] was 5 (90% or more of herbicidal effect and crop phytotoxicity). The “herbicidal effect, Slender Amaranth” value [10] was 5 (90% or more of herbicidal effect and crop phytotoxicity) and the “herbicidal effect, Velvetleaf” value [11] was 5 (90% or more of herbicidal effect and crop phytotoxicity).
For `COCCn1c(C(F)(F)F)ccc(C(=O)C2=C(O)C3CCC(C3)C2=O)c1=O` (centres unmarked) [III-19], the “herbicidal effect, Scirpus juncoides Roxb.” value [1] was 5 (90% or more of herbicidal effect and crop phytotoxicity), the “herbicidal effect, Echinochloa oryzicola Vasing” value [2] was 5 (90% or more of herbicidal effect and crop phytotoxicity) and the “herbicidal effect, Monochoria vaginalis” value [3] was 5 (90% or more of herbicidal effect and crop phytotoxicity). The “herbicidal effect (index), Barnyardgrass” value [4] was 5 (90% or more of herbicidal effect and crop phytotoxicity), the “herbicidal effect (index), Green Foxtail” value [5] was 5 (90% or more of herbicidal effect and crop phytotoxicity) and the “herbicidal effect (index), Slender Amaranth” value [6] was 5 (90% or more of herbicidal effect and crop phytotoxicity). For the same compound, the “herbicidal effect (index), Velvetleaf” value [7] was 5 (90% or more of herbicidal effect and crop phytotoxicity), the “herbicidal effect, Barnyardgrass” value [8] was 5 (90% or more of herbicidal effect and crop phytotoxicity) and the “herbicidal effect, Green Foxtail” value [9] was 5 (90% or more of herbicidal effect and crop phytotoxicity). For the same compound, the “herbicidal effect, Slender Amaranth” value [10] was 5 (90% or more of herbicidal effect and crop phytotoxicity) and the “herbicidal effect, Velvetleaf” value [11] was 5 (90% or more of herbicidal effect and crop phytotoxicity).
For `CCOCCn1c(C(F)(F)F)ccc(C(=O)C2=C(O)C3CCC(C3)C2=O)c1=O` (centres unmarked) [III-20], the “herbicidal effect, Scirpus juncoides Roxb.” value [1] was 5 (90% or more of herbicidal effect and crop phytotoxicity), the “herbicidal effect, Echinochloa oryzicola Vasing” value [2] was 5 (90% or more of herbicidal effect and crop phytotoxicity) and the “herbicidal effect, Monochoria vaginalis” value [3] was 5 (90% or more of herbicidal effect and crop phytotoxicity). For the same compound, the “herbicidal effect (index), Barnyardgrass” value [4] was 5 (90% or more of herbicidal effect and crop phytotoxicity), the “herbicidal effect (index), Green Foxtail” value [5] was 5 (90% or more of herbicidal effect and crop phytotoxicity) and the “herbicidal effect (index), Slender Amaranth” value [6] was 5 (90% or more of herbicidal effect and crop phytotoxicity). For the same compound, the “herbicidal effect (index), Velvetleaf” value [7] was 5 (90% or more of herbicidal effect and crop phytotoxicity), the “herbicidal effect, Barnyardgrass” value [8] was 5 (90% or more of herbicidal effect and crop phytotoxicity) and the “herbicidal effect, Green Foxtail” value [9] was 5 (90% or more of herbicidal effect and crop phytotoxicity). The “herbicidal effect, Slender Amaranth” value [10] was 5 (90% or more of herbicidal effect and crop phytotoxicity) and the “herbicidal effect, Velvetleaf” value [11] was 5 (90% or more of herbicidal effect and crop phytotoxicity).
`COCC(C)n1c(C(F)(F)F)ccc(C(=O)C2=C(O)C3CCC(C3)C2=O)c1=O` (centres unmarked) [III-21] was tested, and the “herbicidal effect, Scirpus juncoides Roxb.” value [1] was 5 (90% or more of herbicidal effect and crop phytotoxicity), the “herbicidal effect, Echinochloa oryzicola Vasing” value [2] was 5 (90% or more of herbicidal effect and crop phytotoxicity) and the “herbicidal effect, Monochoria vaginalis” value [3] was 5 (90% or more of herbicidal effect and crop phytotoxicity). The “herbicidal effect (index), Barnyardgrass” value [4] was 5 (90% or more of herbicidal effect and crop phytotoxicity), the “herbicidal effect (index), Green Foxtail” value [5] was 5 (90% or more of herbicidal effect and crop phytotoxicity) and the “herbicidal effect (index), Slender Amaranth” value [6] was 5 (90% or more of herbicidal effect and crop phytotoxicity). For the same compound, the “herbicidal effect (index), Velvetleaf” value [7] was 5 (90% or more of herbicidal effect and crop phytotoxicity), the “herbicidal effect, Barnyardgrass” value [8] was 5 (90% or more of herbicidal effect and crop phytotoxicity) and the “herbicidal effect, Green Foxtail” value [9] was 5 (90% or more of herbicidal effect and crop phytotoxicity). The “herbicidal effect, Slender Amaranth” value [10] was 5 (90% or more of herbicidal effect and crop phytotoxicity) and the “herbicidal effect, Velvetleaf” value [11] was 5 (90% or more of herbicidal effect and crop phytotoxicity).
